Laboratory results from PMC6268492, “Synthesis and Antiangiogenic Activity of Novel Gambogic Acid Derivatives” (Molecules, 2012).
Where two headings read alike, the source gives them in different places.

What was measured:
HUVEC = test: MTT assay, cell proliferation; type: cell-based, Human; conditions: 24 h, read-out: IC50, inhibition of cell proliferation
Method: Inhibiting the proliferation of ECs is another important strategy for antiangiogenesis. […] As the exposure time of these derivatives was 24 h in the migration assay and 6 h in the tube formation assay, the effect of the incubation for 24 h in the presence of these compounds on HUVECs proliferation was then tested. Cell viability was assessed by the MTT method. We can see from Table 4 that these compounds had different antiproliferative activities.
(§1) HepG2, HCT116, HeLa and LO2 cell lines were cultured in DMEM containing 10% fetal bovine serum (FBS), 100 IU/mL penicillin and 100 µg/mL streptomycin; A549 and K562 cell lines were cultured in RPMI 1640 medium containing 10% fetal bovine serum (FBS), 100 IU/mL penicillin and 100 µg/mL streptomycin; Human umbilical vein endothelial cells (HUVECs) were cultured on gelatin-coated culture flasks in M-199 medium with 20% fetal bovine serum (FBS), 2 ng/mL VEGF, 10 ng/mL basic FGF, 100 IU/mL penicillin, and 100 μg/mL streptomycin; all of them were obtained from the American Type Culture Collection (ATCC) and all cell lines were incubated in an atmosphere of 5% CO2 at 37 °C.
(§2) Cells were treated with various concentrations of compound in 96-well culture plates for 24 h in final volumes of 200 μL (5 × 10^3 cells/well). Then 20 μL of MTT solution (5 mg/mL) was added to each well, and cells were incubated for an additional 3 h. Then the medium was carefully removed, and precipitates were dissolved in 150 μL of DMSO, shaken mechanically for 30 min, and then absorbance values at a wavelength of 570 nm were taken on a spectrophotometer (Molecular Devices, Sunnyvale, CA, USA). Values were calculated using percentage of growth versus untreated control. The IC50 was defined as the concentration that caused 50% inhibition of cell proliferation, and was calculated by SAS statistical software.

HCT116 = test: MTT assay, cell proliferation; type: cell-based; conditions: read-out: IC50, inhibition of cell proliferation
Method: as §1, §2

HeLa = test: MTT assay, cell proliferation; type: cell-based; conditions: 24 h, read-out: IC50, inhibition of cell proliferation
Method: as §1, §2

HepG2 = test: MTT assay, cell proliferation; type: cell-based; conditions: 24 h, read-out: IC50, inhibition of cell proliferation
Method: as §1, §2

A549 = test: MTT assay, cell proliferation; type: cell-based; conditions: 24 h, read-out: IC50, inhibition of cell proliferation
Method: as §1, §2

K562 = test: MTT assay, cell proliferation; type: cell-based; conditions: 24 h, read-out: IC50, inhibition of cell proliferation
Method: as §1, §2

LO2 = test: MTT assay, cytotoxicity; type: cell-based; conditions: read-out: IC50, inhibition of cell proliferation
Method: as §1, §2

[1] = test system: transgenic fli-1: enhanced GFP zebrafish embryos; test: Zebrafish embryo assay: antiangiogenic effects; type: in vivo, zebrafish (Danio rerio); conditions: zebrafish embryos
Method: As stated previously, zebrafish is regarded as a powerful tool in the study of human diseases. […] In this study, all GA derivatives were incubated with the transgenic friend leukemia integration-1 (fli-1): enhanced GFP zebrafish embryos which carried a fli-1 promoter which can drive the expression of GFP in the whole endothelium.
Figure 1 Effects on neovascularization in zebrafish embryos. The transgenic fli-1: enhanced GFP zebrafish embryos in embryo water (0.2 g/L of instant ocean salt in distilled water) incubated with 1 μM of compounds at 6 h postfertilization (hpf) for 24 h. Zebrafish embryos were imaged (Imager.Z1, magnification: left, 40×; right, 100×).
Using transgenic fli-1: enhanced GFP zebrafish embryos, we investigated the effects of all compounds on angiogenesis. […] At about 6 h post fertilization (hpf), the embryos were sorted in the 6-well plate (six embryos/well), removing dead and unhealthy embryos. Then the embryos were treated with the indicated concentrations of compounds which were added into embryo water. After incubation for 24 or 48 h, the embryos were anesthetized using 0.05% 2-phenoxyethanol in embryo water, quantified and photographed.

| Compound | IC50 (HUVEC) | IC50 (HCT116; 24 h) | IC50 (HeLa) | IC50 (HepG2) | IC50 (A549) | IC50 (K562) | IC50 (LO2; 24 h) | IC50 (HUVEC; Homo sapiens) | IC50 (HCT116; Homo sapiens, HCT-116, 24 h) | IC50 (HeLa; Homo sapiens) | IC50 (HepG2; Homo sapiens) | IC50 (A549; Homo sapiens) | IC50 (K562; Homo sapiens) | IC50 (LO2; Homo sapiens, L02, 24 h) | antiangiogenic rates ([1]; 1 μM) | inhibition in vivo at 2.5 µM ([1]; Danio rerio, 2.5 μM, vs vehicle (0.05% DMSO), read-out: Anti-angiogenic phenotype) | inhibition in vivo at 10 µM ([1]; Danio rerio, 10 μM, vs vehicle (0.05% DMSO), read-out: Anti-angiogenic phenotype) |
| --- | --- | --- | --- | --- | --- | --- | --- | --- | --- | --- | --- | --- | --- | --- | --- | --- | --- |
| 3-Ethanonephenyl gambogate [Compound 11] | 3.48 ± 0.18 µM | 3.13 ± 0.3 µM | 3.31 ± 0.24 µM | 3.64 ± 0.53 µM | 3.31 ± 0.45 µM | 2.09 ± 0.19 µM | 3.94 ± 0.19 µM |  |  |  |  |  |  |  |  |  |  |
| CC(C)=CCCC1(C)C=Cc2c(O)c3c(c(CC=C(C)C)c2O1)OC12C(=CC4CC1C(C)(C)OC2(C/C=C(/C)C(=O)Oc1ccc(C)c([N+](=O)[O-])c1)C4=O)C3=O (stereo not drawn) [Compound 1, 4-Methyl-3-nitrophenyl gambogate] |  |  |  |  |  |  |  | 45.2 ± 2.64 µM | 25.5 ± 1.79 µM | 32.9 ± 1.69 µM | 30.8 ± 2.76 µM | 43.5 ± 3.92 µM | 10.2 ± 0.48 µM |  |  |  |  |
| CC(C)=CCCC1(C)C=Cc2c(O)c3c(c(CC=C(C)C)c2O1)OC12C(=CC4CC1C(C)(C)OC2(C/C=C(/C)C(=O)Oc1c(Br)ccc(F)c1F)C4=O)C3=O (stereo not drawn) [Compound 2, 6-Bromo-2,3-difluorophenyl gambogate] |  |  |  |  |  |  |  | 31.9 ± 1.27 µM | 45.3 ± 4.2 µM | 57 ± 0.62 µM | 41.4 ± 3.52 µM | 49.1 ± 5.16 µM | 16.1 ± 1.74 µM |  |  |  |  |
| C=CCc1ccc(OC(=O)/C(C)=C\CC23OC(C)(C)C4CC(C=C5C(=O)c6c(O)c7c(c(CC=C(C)C)c6OC542)OC(C)(CCC=C(C)C)C=C7)C3=O)c(OC)c1 (stereo not drawn) [Compound 3, 4-Allyl-2-methoxyphenyl gambogate] |  |  |  |  |  |  |  | 52.7 ± 1.15 µM | 18.7 ± 0.97 µM | 13.1 ± 0.77 µM | 28.8 ± 2.84 µM | 38 ± 3.1 µM | 8.18 ± 1.22 µM |  |  |  |  |
| CC(=O)c1ccc(OC(=O)/C(C)=C\CC23OC(C)(C)C4CC(C=C5C(=O)c6c(O)c7c(c(CC=C(C)C)c6OC542)OC(C)(CCC=C(C)C)C=C7)C3=O)c([N+](=O)[O-])c1 (stereo not drawn) [Compound 5, 2-Nitro-4-ethanonephenyl gambogate] |  |  |  |  |  |  |  | 4.39 ± 0.27 µM | 5.47 ± 0.24 µM | 6.37 ± 0.11 µM | 9.45 ± 1.42 µM | 5.53 ± 0.4 µM | 2.03 ± 0.2 µM | 4.03 ± 0.34 µM |  |  |  |
| CC(C)=CCCC1(C)C=Cc2c(O)c3c(c(CC=C(C)C)c2O1)OC12C(=CC4CC1C(C)(C)OC2(C/C=C(/C)C(=O)Oc1cc2ccccc2oc1=O)C4=O)C3=O (stereo not drawn) [Compound 6, Coumarin-3-gambogate] |  |  |  |  |  |  |  | 14.6 ± 0.34 µM | 14.5 ± 1.22 µM | 33.3 ± 1.83 µM | 25.8 ± 1.76 µM | 19.7 ± 2.62 µM | 5.47 ± 0.15 µM | > 20 µM |  |  |  |
| CC(C)=CCCC1(C)C=Cc2c(O)c3c(c(CC=C(C)C)c2O1)OC12C(=CC4CC1C(C)(C)OC2(C/C=C(/C)C(=O)Oc1cccc([N+](=O)[O-])c1)C4=O)C3=O (stereo not drawn) [Compound 8, 3-Nitrophenyl gambogate] |  |  |  |  |  |  |  | 77.5 ± 3.65 µM | 66.4 ± 1.1 µM | > 80 µM | > 80 µM | > 80 µM | 17.9 ± 1.38 µM |  |  |  |  |
| CC(C)=CCC/C(C)=C/COC(=O)/C(C)=C\CC12OC(C)(C)C3CC(C=C4C(=O)c5c(O)c6c(c(CC=C(C)C)c5OC431)OC(C)(CCC=C(C)C)C=C6)C2=O (stereo not drawn) [Compound 10, Geraniol gambogate] |  |  |  |  |  |  |  | > 80 µM | > 80 µM | > 80 µM | > 80 µM | > 80 µM | > 80 µM |  |  |  |  |
| COc1ccc(OC(=O)/C(C)=C\CC23OC(C)(C)C4CC(C=C5C(=O)c6c(O)c7c(c(CC=C(C)C)c6OC542)OC(C)(CCC=C(C)C)C=C7)C3=O)cc1 (stereo not drawn) [Compound 13, 4-Methoxyphenyl gambogate] |  |  |  |  |  |  |  | 27.7 ± 2.77 µM | 17.5 ± 1.59 µM | > 80 µM | 60.5 ± 4.24 µM | 66.8 ± 4.59 µM | 8.05 ± 0.28 µM |  |  |  |  |
| COc1ccc(-c2csc(NC(=O)/C(C)=C\CC34OC(C)(C)C5CC(C=C6C(=O)c7c(O)c8c(c(CC=C(C)C)c7OC653)OC(C)(CCC=C(C)C)C=C8)C4=O)n2)cc1 (stereo not drawn) [Compound 31, 4-(4-Methoxyphenyl)thiazol-2-gambogamide] |  |  |  |  |  |  |  | 30.2 ± 2.04 µM | 18.9 ± 1.34 µM | 57.9 ± 2.6 µM | 49.2 ± 4.31 µM | 61.6 ± 1.73 µM | 13.7 ± 0.56 µM |  | inactive | < 25% | 25 to 50% |
